The results in this text go back to ChEMBL document CHEMBL1201862, “PubChem BioAssay data set” (2004).

Each structure is given as a SMILES string.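 Five compound concentrations were applied to cells in 96-well plates for 48 hours; endpoints were derived by simple linear interpolation of the resulting dose-response curve. GI50 marks 50% less growth.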 Calls of active or inactive are those of the source. Rule as the data show it: active = GI50 up to about 1.1 µM and inactive = higher.

Common to all, as to assay: NCI tumour cell line growth inhibition, 48 h
Test [1] relates to EKVX.
For test [2], the system named is HCT-116.
Test [3] relates to HOP-92.
In test [4] the test system is LOX IMVI.
The test system of test [5] is M14.
Test [6] deals with MOLT-4.
Test [7] concerns NCI-H226.
Test [8] has as its system OVCAR-5.
Test [9] relates to RPMI-8226.
For test [10], the system named is RXF 393.
Test [11] has as its system SK-MEL-2.
For test [12], the system named is SR.
Test [13] deals with UACC-257.
Test [14] deals with UACC-62.
The test system of test [15] is UO-31.
Test [16] concerns CAKI-1.
Test [17] concerns KM12.

As to `Cc1ccc(S(=O)(=O)NC(=O)C2(Br)S(=O)(=O)OCCOS2(=O)=O)cc1`, the GI50 in test [1], in test [2], in test [3], in test [4], in [5] and in test [6] was > 100 µM (inactive) each time. Also, the GI50 in test [7], in test [8], in test [9], in test [10], in [11] and in test [12] was > 100 µM (inactive) throughout. Also, the GI50 in test [13], in [14] and in test [15] was > 100 µM (inactive) throughout.
Consider `COC(=O)C(=O)C(C(=O)C(=O)Nc1ccccc1C(N)=O)c1nc2ccc([N+](=O)[O-])cc2nc1O` (stereo not given), for which the GI50 in [16], in test [1], in test [2], in [3], in test [17] and in test [4] was > 100 µM (inactive) throughout. The GI50 in [5], in test [6], in test [7], in test [8], in test [9] and in [10] was > 100 µM (inactive) each time. Further, the GI50 in test [11], in test [12], in [13], in test [14] and in test [15] was > 100 µM (inactive) each time.
With `CN(C)CC1CCCCCCCCCCCCC(CN(C)C)C1=O` (stereo not given), the GI50 was 13.3 µM (inactive) in test [16]; 22.6 µM (inactive) in test [1]; 4.54 µM (inactive) in test [2]; 13.2 µM (inactive) in test [3]; 11.1 µM (inactive) in test [17]; 8.43 µM (inactive) in [4]. Further, the GI50 is 13.2 µM (inactive) in test [5]; 2.09 µM (inactive) in test [6]; 11 µM (inactive) in [7]; 16.7 µM (inactive) in test [8]; 11.2 µM (inactive) in [10]; 12.4 µM (inactive) in [11]. In addition, the GI50 in test [12] is 1.46 µM (inactive); in test [13], 16.3 µM (inactive); in [14] it was 13.3 µM (inactive); in test [15], 13.7 µM (inactive).
Take `Cc1c2ccncc2c(C)c2c1[nH]c1ccc(OC(C)C)cc12`: the GI50 in test [16] is 1.6 µM (inactive); in [1] it was 1.4 µM (inactive); in test [2], 0.736 µM (active); in test [3] it was 1.51 µM (inactive); in test [17], 1.35 µM (inactive); in test [4] it was 1.18 µM (inactive). For the same compound, the GI50 in [5] is 1.6 µM (inactive); in test [6], 0.59 µM (active); in test [7] it was 1.63 µM (inactive); in test [8], 1.48 µM (inactive); in [9], 1.99 µM (inactive); in [10] it was 1.33 µM (inactive). The GI50 was 1.58 µM (inactive) in [11], 0.668 µM (active) in test [12], 1.82 µM (inactive) in test [13] and 1.53 µM (inactive) in [15].
In the case of `O=C(N/N=C/c1ccccc1O)c1cccc([N+](=O)[O-])c1`, the GI50 in [1] was 21.1 µM (inactive); in test [2], 22.5 µM (inactive); in test [17], 29.6 µM (inactive); in [4], 18.4 µM (inactive); in [5], 14.7 µM (inactive); in test [6] it was 3.1 µM (inactive). The GI50 was 22.4 µM (inactive) in test [8]; 8.04 µM (inactive) in test [9]; 8.95 µM (inactive) in test [10]; 21.8 µM (inactive) in test [11]; 3.78 µM (inactive) in [12]; 9.48 µM (inactive) in [13]. The results for the GI50 in test [14] and in test [15] were 20.7 µM (inactive) and 7.82 µM (inactive), respectively.
In the case of `Cn1cnc(S[C@H]2[C@H]3C(=O)C=C4S[C@H]5C[C@]42C2=C(N5)C(=O)c4[nH]cc5c4C2=[N+]3CC5)c1C[C@H](N)C(=O)O`, the GI50 in [16] was 27 µM (inactive); in [1], 17.7 µM (inactive); in test [2], 3.7 µM (inactive); in [3], 18.9 µM (inactive); in test [17] it was 16.7 µM (inactive); in [4], 13.1 µM (inactive). Besides, the GI50 in test [5] is 15.4 µM (inactive); in test [6], 12.7 µM (inactive); in test [7], 19.4 µM (inactive); in test [8], 15.1 µM (inactive); in test [9], 16.7 µM (inactive); in test [10] it was 22.1 µM (inactive). Further, the GI50 in test [11] is 13.7 µM (inactive); in test [12] it was 19.1 µM (inactive); in [13], 16.1 µM (inactive); in test [14] it was 15.7 µM (inactive); in test [15], 17.5 µM (inactive).
For `COc1ccc(-c2cc(=O)c3c(O)c(OC)c(O)c(OC)c3o2)cc1OC`, the GI50 in [1] is > 100 µM (inactive); in test [2] it was 57 µM (inactive); in test [3] it was 25.1 µM (inactive); in test [5] it was > 100 µM (inactive); in test [6], 42.3 µM (inactive); in test [7], 22.2 µM (inactive). Moreover, the GI50 was 46 µM (inactive) in test [9]; 14.1 µM (inactive) in test [10]; 31.2 µM (inactive) in [12]; > 100 µM (inactive) in test [13]; 47.4 µM (inactive) in [14]; 21.5 µM (inactive) in test [15].
For the compound `COc1cc(C2[C@H]3C(=O)N(c4ccc(Cc5ccc(N6C(=O)[C@@H]7ON(c8ccccc8)C(c8cc(OC)c(OC)c(OC)c8)[C@@H]7C6=O)cc5)cc4)C(=O)[C@H]3ON2c2ccccc2)cc(OC)c1OC` (stereo not given in full), the GI50 was > 100 µM (inactive) in [16]; > 100 µM (inactive) in test [1]; > 100 µM (inactive) in test [2]; > 100 µM (inactive) in [17]; > 100 µM (inactive) in test [4]; 17 µM (inactive) in [5]. In addition, the GI50 in test [6], in test [7], in [8], in test [9], in test [10] and in test [11] was > 100 µM (inactive) throughout. Further, the GI50 was > 100 µM (inactive) in test [12], > 100 µM (inactive) in test [13], 95.3 µM (inactive) in [14] and > 100 µM (inactive) in [15].
On to `CC(=O)OC1CC2C(C)(C)OC(=O)CC(OC(C)=O)[C@]2(C)C2CCC3(C)C(=CCC3c3ccoc3)[C@]12C` (stereo not given in full), for which the GI50 in [16] was 31.3 µM (inactive); in test [1], 15.5 µM (inactive); in [2], 14.4 µM (inactive); in test [3] it was 6.32 µM (inactive); in test [17], 30.6 µM (inactive); in test [4], 28.7 µM (inactive). The GI50 is 18.9 µM (inactive) in test [5]; 5.9 µM (inactive) in [6]; 14.9 µM (inactive) in test [7]; 32.8 µM (inactive) in [8]; 18.2 µM (inactive) in test [9]; 24 µM (inactive) in test [10]. In addition, the GI50 is 10.9 µM (inactive) in test [11], 8.15 µM (inactive) in test [12], 22.2 µM (inactive) in test [14] and 23.9 µM (inactive) in test [15].
Take `CC1(C)CC(=O)C(CC2C(=O)CCCC2=O)C(=O)C1`: the GI50 in [16], in test [1], in test [2], in test [17], in [4] and in [5] was > 100 µM (inactive) each time. Also, the GI50 in test [6], in [7], in test [8], in [10], in test [11] and in test [12] was > 100 µM (inactive) in each case. Also, the GI50 in test [13], in test [14] and in [15] was > 100 µM (inactive) throughout.
`CCCCCCCCCCCCCCCCCc1nnc(N)o1`: the GI50 in [16], in [2], in test [3], in [17], in test [4] and in test [5] was > 100 µM (inactive) throughout. The GI50 in test [6], in test [7], in test [8], in [9], in test [11] and in test [12] was > 100 µM (inactive) throughout. Besides, the GI50 in test [13], in [14] and in test [15] was > 100 µM (inactive) in each case.
Regarding `C1=CC2CCC1CN2CCC1CNc2ccccc21` (stereo not given), the GI50 in test [1], in test [2], in test [3], in test [17], in test [4] and in [5] was > 100 µM (inactive) in each case. Besides, the GI50 was > 100 µM (inactive) in [6]; > 100 µM (inactive) in test [7]; > 100 µM (inactive) in test [8]; > 100 µM (inactive) in test [9]; 75.3 µM (inactive) in test [10]; > 100 µM (inactive) in test [11]. Moreover, the GI50 in test [12] is > 100 µM (inactive); in [13], > 100 µM (inactive); in test [14] it was > 100 µM (inactive); in test [15], 64.9 µM (inactive).
